According to PubChem BioAssay (NCI):
“And” between values parts separate entries of the source, which are not always exact repeats. Equal values may be shown once.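 These data come from cells grown in 96-well plates and exposed to compound for 48 hours at five concentrations. GI50: concentration for 50% inhibition of growth. Definition used: TGI = concentration required for complete inhibition of growth.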 Where a SMILES comes first, the peptide text is derived from it. [ ]: non-standard residue; d: D form. The star is where a group is joined. Phe(4-NO2) = N[CH](Cc1ccc([N+](=O)[O-])cc1)C(=O)O; Boc = CC(C)(C)OC(=O)*

Tests used:
Experiment in all cases: DTP human tumour cell line panel, 48 h
SK-MEL-28 melanoma = system: SK-MEL-28 melanoma
SK-OV-3 ovarian = system: SK-OV-3 ovarian
EKVX NSCLC = system: EKVX NSCLC
ACHN renal = system: ACHN renal
MDA-N = system: MDA-N
HL-60(TB) leukemia = system: HL-60(TB) leukemia
HCC-2998 colon = system: HCC-2998 colon
SF-295 CNS = system: SF-295 CNS
NCI-H522 lung = system: NCI-H522 lung
MALME-3M melanoma = system: MALME-3M melanoma

| Structure (SMILES) | TGI (SK-MEL-28 melanoma) | TGI (SK-OV-3 ovarian) [µM] | TGI (EKVX NSCLC) [µM] | TGI (ACHN renal) [µM] | TGI (MDA-N) [µM] | TGI (HL-60(TB) leukemia) | TGI (HCC-2998 colon) [µM] | TGI (SF-295 CNS) [µM] | TGI (NCI-H522 lung) [µM] | TGI (MALME-3M melanoma) [µM] | GI50 (SK-MEL-28 melanoma) [µM] | GI50 (MALME-3M melanoma) [µM] | GI50 (NCI-H522 lung) [µM] | GI50 (EKVX NSCLC) [µM] | GI50 (ACHN renal) [µM] | GI50 (HL-60(TB) leukemia) [µM] | GI50 (HCC-2998 colon) [µM] | GI50 (SF-295 CNS) [µM] |
| --- | --- | --- | --- | --- | --- | --- | --- | --- | --- | --- | --- | --- | --- | --- | --- | --- | --- | --- |
| CC(C)[C@H](C)/C=C/[C@@H](C)C1CC[C@H]2[C@@]34C=C[C@]5(C[C@@H](O)CC[C@]5(C)[C@H]3CC[C@]12C)OO4 (some centres not stated) | > 100 µM | > 100 | > 100 | > 100 | > 100 | 57.1 µM | 50.9 | > 100 |  |  |  |  |  |  |  |  |  |  |
| COc1ccc(/C=C2\CCCc3ccccc3C2=O)cc1 | > 100 µM | > 60.6 | > 100 | > 100 |  | 9.55 µM | 28.2 |  | 1.71 | > 100 |  |  |  |  |  |  |  |  |
| O=[N+]([O-])c1ccc(N2N=C(c3c(O)ccc4ccccc34)CC2c2ccc(Cl)cc2)c([N+](=O)[O-])c1 (configuration not stated) | > 100 µM | > 100 |  | > 100 | > 100 |  | > 100 | 39.1 | > 100 | 63 |  |  |  |  |  |  |  |  |
| O=c1[nH]nc(-c2ccccc2)c2[nH]c3c(c12)Cc1ccccc1-3 | > 100 µM | > 100 | > 100 | > 100 | > 27.4 | 7.48 µM | > 100 | > 100 |  | > 41.6 |  |  |  |  |  |  |  |  |
| c1ccc2c(Nc3ncco3)cccc2c1 | > 10 µM | > 10 | > 10 | > 10 | > 10 |  | > 10 | > 10 | > 10 | > 10 |  |  |  |  |  |  |  |  |
| CC(C)(C)OC(=O)C(C#N)C(=O)c1ccc(C(=O)O)[nH]1 (configuration not stated) | > 100 µM | > 100 | > 100 | > 100 | > 100 | 62.1 µM |  | > 100 | > 100 | > 100 |  |  |  |  |  |  |  |  |
| COc1cccc2c1OC1c3ccccc3OCC1(O)C2 (configuration not stated) |  | > 100 | > 100 | > 100 | > 100 |  | > 100 | > 100 | > 100 | > 100 |  |  |  |  |  |  |  |  |
| CC(CCc1nc2ccccc2s1)(c1ccc(O)cc1)c1ccc(O)cc1 | 33.7 µM |  | 32.3 | 33.2 | 31.1 |  | 33.8 | 28.9 | 32 | 31 |  |  |  |  |  |  |  |  |
| O=C1CC(c2ccsc2)n2cccc21 (configuration not stated) | > 100 µM | > 100 | > 100 | > 100 |  | > 100 µM | > 100 | > 100 | > 100 |  |  |  |  |  |  |  |  |  |
| CC(=O)OCC1OC(SC2=NC(=O)CS2)C(OC(C)=O)C(OC(C)=O)C1OC(C)=O (configuration not stated) | > 100 µM | > 100 |  | > 100 | > 100 | 91.2 µM and 70.7 µM | > 100 | > 100 | > 100 | > 100 |  |  |  |  |  |  |  |  |
| Oc1ccc2ccccc2c1OCc1nnc(CCCCCCCCc2nnc(COc3c(O)ccc4ccccc34)n2Nc2ccccc2)n1Nc1ccccc1 | > 87.7 µM | > 100 | > 76.8 | > 100 |  |  | 31 | > 100 | 26.6 | 56.2 |  |  |  |  |  |  |  |  |
| O=C1c2ccncc2C(=O)c2c(O)ccc(O)c21 | 26.7 µM |  | 32.1 | 17.1 |  | 5.41 µM | 16.3 | 25.1 |  | 5.44 |  |  |  |  |  |  |  |  |
| Cc1nc2ccc(Cl)cc2c2c1CCO2 | > 100 µM |  | > 100 | > 100 | > 100 | > 100 µM | > 100 | > 100 | > 100 | > 100 |  |  |  |  |  |  |  |  |
| COc1cccc(C(C#N)NNC(=O)c2c(Cl)c(Cl)c(Cl)c(Cl)c2-c2nc3ccc(C(=O)c4ccccc4)cc3[nH]2)c1O (configuration not stated) | > 100 µM | > 100 | > 100 | > 100 |  | > 100 µM |  | 4.69 |  |  |  |  |  |  |  |  |  |  |
| C/C(=C\Cc1ccc(F)cc1)CCCCCC/C(C)=C/Cc1ccc(F)cc1 |  | 68.6 | 37.2 | 24.8 | 34.2 |  |  | 24.6 | 21 |  |  |  |  |  |  |  |  |  |
| Cc1cn(C2CC(COCc3ccccc3)N(CCO[Si](C)(C)C(C)(C)C)O2)c(=O)[nH]c1=O (configuration not stated) | 34.7 µM | 31.4 |  | 28.9 | 27.9 |  |  | 29.9 | 31.4 | 34.3 |  |  |  |  |  |  |  |  |
| Cc1nc2ccc(Br)cc2c(=O)n1-c1ccc(N)cc1 | > 100 µM | > 100 | > 100 | > 100 | > 100 | > 100 µM | > 100 | > 100 |  | > 100 |  |  |  |  |  |  |  |  |
| COC(=O)C1C(=O)CC(C)(O)C(C(=O)OC)C1c1ccc(N(C)C)cc1 (configuration not stated) | > 100 µM |  | > 100 | > 100 | > 100 | > 100 µM | > 100 | > 100 | > 100 | > 100 |  |  |  |  |  |  |  |  |
| CCOC(=O)CCC(NC(=O)C(Cc1ccc([N+](=O)[O-])cc1)NC(=O)OC(C)(C)C)C(=O)NC(CCC(=O)OCC)C(=O)OCC (configuration not stated) (Boc-[Phe(4-NO2)]-Glu(OEt)-Glu(OEt)-OEt; configuration not given here) | 32.1 µM |  |  | 31.1 | 52.6 | 44 µM | 30.9 |  |  | 35 |  |  |  |  |  |  |  |  |
| Nc1ccc2c(=O)cc(-c3ccc(Br)s3)[nH]c2n1 | > 100 µM | > 53.1 | > 100 | > 100 | 1.29 |  | 29.7 | > 31.9 | > 23.1 | > 100 |  |  |  |  |  |  |  |  |
| c1ccc2c[n+](CCCC[n+]3ccc4ccccc4c3)ccc2c1 | > 100 µM | > 100 | > 100 | > 100 | > 100 | > 100 µM | > 100 | > 100 |  |  |  |  |  |  |  |  |  |  |
| Cc1ccc(N2C(=O)C3CSCN3C2=O)cc1 (configuration not stated) | > 100 µM and 31.2 µM | > 100 | > 100 |  |  | > 100 µM | > 100 | > 100 | > 100 | > 100 | > 100 | > 100 |  |  |  |  |  |  |
| O=S(=O)(/N=S(/Nc1ccccc1)C(F)(F)Cl)c1ccccc1 (configuration not stated) | > 100 µM | > 100 | > 100 | > 100 | > 100 | > 100 µM |  | > 100 |  | > 100 |  |  |  |  |  |  |  |  |
| O=C(Nc1ccc(-n2cc(-c3ccncc3)c(-c3ccc(O)c(Cl)c3)n2)cc1)c1ccc(Cl)c(C(F)(F)F)c1 | > 50 µM |  | > 50 | 13.3 |  | 12.5 µM | > 50 | 4.15 | 4.88 | 6.71 | 3.61 | 1.45 | 1 | 4.83 | 1.8 | 1.83 | 2.82 | 1.35 |
